From US20020137929A1, “1 - (3-heterocyclylphenyl) isothiourea, -isourea, -guanidine and -amidine herbicidal agents” (Intellectual Property Department, BASF Aktiengesellschaft, priority 1998, published 2002)

What was measured:
SETVI (Foxtail, Green) [1] = test: Postemergence herbicidal evaluation; type: in vivo, Setaria viridis; conditions: for SETVI herbicidal rating: postemergence
How it was run: (§1)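 Each compound, dispersed in an acetone/water mix (50/50) carrying 0.5% TWEEN 20, is nozzle-sprayed at 40 psi on approximately two-week-old seedlings at about 0.0156–0.500 kg/ha. Plants are assessed 4–5 weeks afterward on a 0–9 scale relative to control; duplicate tests are averaged.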

[2] = system: TRZAWR (Wheat, Winter, cv Riband); test: Postemergence herbicidal evaluation; type: in vivo, Triticum aestivum; conditions: for TRZAWR herbicidal rating: postemergence
How it was run: as §1

AMBEL (Ragweed, Common) = test: Preemergence herbicidal evaluation; type: in vivo, Ambrosia artemisifolia; conditions: rated 4-5 weeks after treatment; for AMBEL rating: preemergence, 0-9 scale
How it was run: (§2)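 In this greenhouse assay, monocot and dicot seeds are planted in soil and treated prior to emergence with an aqueous acetone spray (about 0.0156-0.500 kg/ha). Plants are assessed visually against control on a 0-9 scale after 4-5 weeks.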

SETVI (Foxtail, Green) [3] = test: Preemergence herbicidal evaluation; type: in vivo, Setaria viridis; conditions: rated 4-5 weeks after treatment; for SETVI rating: preemergence, 0-9 scale
How it was run: as §2

[4] = system: ECHORC (Watergrass (Calif.)); test: Postemergence weed control under flooded paddy conditions; type: in vivo, Echinochloa oryzoides; conditions: postemergence weeds
How it was run: (§3)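 With weeds 3 to 5 cm tall and rice at the 1.5 to 2.5 leaf stage, containers were flooded and water held 1.5 to 3 cm above soil. Compounds in 50/50 v/v aqueous/acetone went into the flood water at about 0.0313 to 0.500 kg/ha a.i. Effects were visually rated 0–9 against controls after three to four weeks in the greenhouse.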

[5] = system: CHEAL (Lambsquarters, Common); test: Postemergence herbicidal evaluation; type: in vivo, Chenopodium album; conditions: for CHEAL herbicidal rating: postemergence
How it was run: as §1

GALAP (Galium) = test: Preemergence herbicidal evaluation; type: in vivo, Galium aparine; conditions: rated 4-5 weeks after treatment; for GALAP rating: preemergence, 0-9 scale
How it was run: as §2

ZEAMX (Corn, Field) = test: Postemergence herbicidal evaluation; type: in vivo, Zea mays; conditions: for ZEAMX herbicidal rating: postemergence
How it was run: as §1

ORYSAT (Rice, Tebonnet) = test: Postemergence herbicidal evaluation; type: in vivo, Oryza sativa, (L.) Tebonnet; conditions: for ORYSAT herbicidal rating: postemergence
How it was run: as §1

[6] = system: GLXMAW (Soybean, Williams); test: Postemergence herbicidal evaluation; type: in vivo, Glycine max, (L.) Merr. cv Williams; conditions: for GLXMAW herbicidal rating: postemergence
How it was run: as §1

ABUTH (Velvetleaf) = test: Postemergence herbicidal evaluation; type: in vivo, Abutilon theophrasti; conditions: for ABUTH herbicidal rating: postemergence
How it was run: as §1

[7] = system: SAGPY (Arrowhead (Pygmaea)); test: Postemergence weed control under flooded paddy conditions; type: in vivo, Sagittaria pygmaea; conditions: postemergence weeds
How it was run: as §3

CYPIR (Rice Flatsedge) = test: Preemergence weed control under flooded paddy conditions; type: in vivo, Cyperus iria; conditions: rated 3-4 weeks after treatment
How it was run: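 Silt loam, seeds in top 0.5 cm; flood held 1.5-3 cm; test cpd as acetone/water 50/50 into flood water, ~0.0313-0.500 kg/ha a.i.; greenhouse 3-4 wk; visual 0-9 score vs control.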

CYPSE (Flatsedge) = test: Postemergence weed control under flooded paddy conditions; type: in vivo, Cyperus serotinus; conditions: postemergence weeds
How it was run: as §3

[8] = Rate 0.0313 kg/ha, rated 3 to 4 weeks after treatment
[9] = Rate 0.0625 kg/ha, rated 3 to 4 weeks after treatment
[10] = Rate 0.1250 kg/ha, rated 3 to 4 weeks after treatment
[11] = Rate 0.2500 kg/ha, rated 3 to 4 weeks after treatment
[12] = rate 0.0313 kg/ha, 3-4 weeks after treatment
[13] = rate 0.0625 kg/ha, 3-4 weeks after treatment
[14] = rate 0.1250 kg/ha, 3-4 weeks after treatment
[15] = rate 0.2500 kg/ha, 3-4 weeks after treatment

SMILES: C=CCN1C(=O)C(CC(=O)OCCF)SC1=Nc1cc(-n2c(=O)cc(C(F)(F)F)n(C)c2=O)c(F)cc1Cl (stereo not drawn) [Compound 86, 2-Fluoroethyl 3-allyl-2-{{2-chloro-5-[3,6-dihydro-3-methyl-2,6-dioxo-4-(trifluoromethyl)-1(2H)-pyrimidinyl]-4-fluorophenyl}imino}-4-oxo-5-thiazolidineacetate]
- SETVI herbicidal rating (SETVI (Foxtail, Green) [1]; rate 0.0156 kg/ha): 8.0
- SETVI herbicidal rating (SETVI (Foxtail, Green) [1]; rate 0.0313 kg/ha): 9.0
- SETVI herbicidal rating (SETVI (Foxtail, Green) [1]; rate 0.0625 kg/ha): 9.0
- SETVI herbicidal rating (SETVI (Foxtail, Green) [1]; rate 0.1250 kg/ha): 9.0
- TRZAWR herbicidal rating ([2]; rate 0.0156 kg/ha): 6.0
- TRZAWR herbicidal rating ([2]; rate 0.0313 kg/ha): 7.0
- TRZAWR herbicidal rating ([2]; rate 0.0625 kg/ha): 7.5
- TRZAWR herbicidal rating ([2]; rate 0.1250 kg/ha): 8.5
- AMBEL rating (AMBEL (Ragweed, Common); 0.0156 kg/ha): 0.0
- AMBEL rating (AMBEL (Ragweed, Common); 0.0313 kg/ha): 0.0
- AMBEL rating (AMBEL (Ragweed, Common); 0.0625 kg/ha): 6.0
- AMBEL rating (AMBEL (Ragweed, Common); 0.1250 kg/ha): 9.0
- AMBEL rating (AMBEL (Ragweed, Common); 0.2500 kg/ha): 9.0
- AMBEL rating (AMBEL (Ragweed, Common); 0.5000 kg/ha): 9.0
- SETVI rating (SETVI (Foxtail, Green) [3]; 0.0156 kg/ha): 0.0
- SETVI rating (SETVI (Foxtail, Green) [3]; 0.0313 kg/ha): 0.0
- SETVI rating (SETVI (Foxtail, Green) [3]; 0.0625 kg/ha): 4.0
- SETVI rating (SETVI (Foxtail, Green) [3]; 0.1250 kg/ha): 8.0
- SETVI rating (SETVI (Foxtail, Green) [3]; 0.2500 kg/ha): 9.0
- SETVI rating (SETVI (Foxtail, Green) [3]; 0.5000 kg/ha): 9.0
- Herbicidal rating ECHORC [4, 8]: 5.0
- Herbicidal rating ECHORC [4, 9]: 6.0
- Herbicidal rating ECHORC [4, 10]: 9.0
- Herbicidal rating ECHORC [4, 11]: 9.0
- CHEAL herbicidal rating ([5]; rate 0.0156 kg/ha): 9.0
- CHEAL herbicidal rating ([5]; rate 0.0313 kg/ha): 9.0
- CHEAL herbicidal rating ([5]; rate 0.0625 kg/ha): 9.0
- CHEAL herbicidal rating ([5]; rate 0.1250 kg/ha): 9.0
- GALAP rating (GALAP (Galium); 0.0156 kg/ha): 0.0
- GALAP rating (GALAP (Galium); 0.0313 kg/ha): 0.0
- GALAP rating (GALAP (Galium); 0.0625 kg/ha): 0.0
- GALAP rating (GALAP (Galium); 0.1250 kg/ha): 0.0
- GALAP rating (GALAP (Galium); 0.2500 kg/ha): 9.0
- GALAP rating (GALAP (Galium); 0.5000 kg/ha): 9.0
- ZEAMX herbicidal rating (ZEAMX (Corn, Field); rate 0.0156 kg/ha): 7.5
- ZEAMX herbicidal rating (ZEAMX (Corn, Field); rate 0.0313 kg/ha): 8.0
- ZEAMX herbicidal rating (ZEAMX (Corn, Field); rate 0.0625 kg/ha): 8.5
- ZEAMX herbicidal rating (ZEAMX (Corn, Field); rate 0.1250 kg/ha): 9.0
- ORYSAT herbicidal rating (ORYSAT (Rice, Tebonnet); rate 0.0156 kg/ha): 3.0
- ORYSAT herbicidal rating (ORYSAT (Rice, Tebonnet); rate 0.0313 kg/ha): 7.5
- ORYSAT herbicidal rating (ORYSAT (Rice, Tebonnet); rate 0.0625 kg/ha): 7.5
- ORYSAT herbicidal rating (ORYSAT (Rice, Tebonnet); rate 0.1250 kg/ha): 8.5
- GLXMAW herbicidal rating ([6]; rate 0.0156 kg/ha): 8.5
- GLXMAW herbicidal rating ([6]; rate 0.0313 kg/ha): 9.0
- GLXMAW herbicidal rating ([6]; rate 0.0625 kg/ha): 9.0
- GLXMAW herbicidal rating ([6]; rate 0.1250 kg/ha): 9.0
- ABUTH herbicidal rating (ABUTH (Velvetleaf); rate 0.0156 kg/ha): 9.0
- ABUTH herbicidal rating (ABUTH (Velvetleaf); rate 0.0313 kg/ha): 9.0
- ABUTH herbicidal rating (ABUTH (Velvetleaf); rate 0.0625 kg/ha): 9.0
- ABUTH herbicidal rating (ABUTH (Velvetleaf); rate 0.1250 kg/ha): 9.0
- Herbicidal rating SAGPY [7, 8]: 5.0
- Herbicidal rating SAGPY [7, 9]: 9.0
- Herbicidal rating SAGPY [7, 10]: 9.0
- Herbicidal rating SAGPY [7, 11]: 9.0
- CYPIR herbicidal effect rating (CYPIR (Rice Flatsedge); 0.0313 kg/ha): 3.0
- CYPIR herbicidal effect rating (CYPIR (Rice Flatsedge); 0.0625 kg/ha): 7.0
- CYPIR herbicidal effect rating (CYPIR (Rice Flatsedge); 0.1250 kg/ha): 8.0
- CYPIR herbicidal effect rating (CYPIR (Rice Flatsedge); 0.2500 kg/ha): 9.0
- Herbicidal rating CYPSE (CYPSE (Flatsedge); [8]): 0.0
- Herbicidal rating CYPSE (CYPSE (Flatsedge); [9]): 0.0
- Herbicidal rating CYPSE (CYPSE (Flatsedge); [10]): 3.0
- Herbicidal rating CYPSE (CYPSE (Flatsedge); [11]): 9.0

SMILES: CCOC(=O)CN1C(=O)C(Cc2ccccc2OC)SC1=Nc1cc(-n2c(=O)cc(C(F)(F)F)n(C)c2=O)c(F)cc1Cl (stereo not drawn) [Compound 37, Ethyl 2-{{2-chloro-5-[3,6-dihydro-3-methyl-2,6-dioxo-4-(trifluoromethyl)-1(2H)-pyrimidinyl]-4-fluorophenyl}imino}-5-(o-methoxybenzyl)-4-oxo-3-thiazolidineacetate]
- Postemergence herbicidal rating SETVI (SETVI (Foxtail, Green) [1]; Rate 0.0158 kg/ha): 0.0
- Postemergence herbicidal rating SETVI (SETVI (Foxtail, Green) [1]; Rate 0.0315 kg/ha): 0.0
- Postemergence herbicidal rating SETVI (SETVI (Foxtail, Green) [1]; Rate 0.0630 kg/ha): 0.0
- Postemergence herbicidal rating TRZAWR ([2]; Rate 0.0158 kg/ha): 2.0
- Postemergence herbicidal rating TRZAWR ([2]; Rate 0.0315 kg/ha): 2.0
- Postemergence herbicidal rating TRZAWR ([2]; Rate 0.0630 kg/ha): 2.0
- Preemergence herbicidal rating AMBEL (AMBEL (Ragweed, Common); rate 0.1250 kg/ha): 0.0
- Preemergence herbicidal rating AMBEL (AMBEL (Ragweed, Common); rate 0.2500 kg/ha): 0.0
- Preemergence herbicidal rating SETVI (SETVI (Foxtail, Green) [3]; rate 0.1250 kg/ha): 0.0
- Preemergence herbicidal rating SETVI (SETVI (Foxtail, Green) [3]; rate 0.2500 kg/ha): 0.0
- Herbicidal rating ECHORC [4, 12]: 4.0
- Herbicidal rating ECHORC [4, 13]: 6.0
- Herbicidal rating ECHORC [4, 14]: 7.0
- Herbicidal rating ECHORC [4, 15]: 7.0
- Postemergence herbicidal rating CHEAL ([5]; Rate 0.0158 kg/ha): 3.0
- Postemergence herbicidal rating CHEAL ([5]; Rate 0.0315 kg/ha): 3.0
- Postemergence herbicidal rating CHEAL ([5]; Rate 0.0630 kg/ha): 3.0
- Preemergence herbicidal rating GALAP (GALAP (Galium); rate 0.1250 kg/ha): 0.0
- Preemergence herbicidal rating GALAP (GALAP (Galium); rate 0.2500 kg/ha): 9.0
- Postemergence herbicidal rating ZEAMX (ZEAMX (Corn, Field); Rate 0.0158 kg/ha): 3.5
- Postemergence herbicidal rating ZEAMX (ZEAMX (Corn, Field); Rate 0.0315 kg/ha): 4.0
- Postemergence herbicidal rating ZEAMX (ZEAMX (Corn, Field); Rate 0.0630 kg/ha): 4.0
- Postemergence herbicidal rating ORYSAT (ORYSAT (Rice, Tebonnet); Rate 0.0158 kg/ha): 0.5
- Postemergence herbicidal rating ORYSAT (ORYSAT (Rice, Tebonnet); Rate 0.0315 kg/ha): 1.0
- Postemergence herbicidal rating ORYSAT (ORYSAT (Rice, Tebonnet); Rate 0.0630 kg/ha): 1.5
- Postemergence herbicidal rating GLXMAW ([6]; Rate 0.0158 kg/ha): 4.5
- Postemergence herbicidal rating GLXMAW ([6]; Rate 0.0315 kg/ha): 5.0
- Postemergence herbicidal rating GLXMAW ([6]; Rate 0.0630 kg/ha): 5.0
- Postemergence herbicidal rating ABUTH (ABUTH (Velvetleaf); Rate 0.0158 kg/ha): 9.0
- Postemergence herbicidal rating ABUTH (ABUTH (Velvetleaf); Rate 0.0315 kg/ha): 9.0
- Postemergence herbicidal rating ABUTH (ABUTH (Velvetleaf); Rate 0.0630 kg/ha): 9.0
- Herbicidal rating SAGPY [7, 12]: 0.0
- Herbicidal rating SAGPY [7, 13]: 0.0
- Herbicidal rating SAGPY [7, 14]: 0.0
- Herbicidal rating SAGPY [7, 15]: 3.0
- Herbicidal rating CYPIR (CYPIR (Rice Flatsedge); 0.0313 kg/ha): 0.0
- Herbicidal rating CYPIR (CYPIR (Rice Flatsedge); 0.0625 kg/ha): 0.0
- Herbicidal rating CYPIR (CYPIR (Rice Flatsedge); 0.1250 kg/ha): 0.0
- Herbicidal rating CYPIR (CYPIR (Rice Flatsedge); 0.2500 kg/ha): 0.0
- Herbicidal rating CYPSE (CYPSE (Flatsedge); [12]): 0.0
- Herbicidal rating CYPSE (CYPSE (Flatsedge); [13]): 0.0
- Herbicidal rating CYPSE (CYPSE (Flatsedge); [14]): 0.0
- Herbicidal rating CYPSE (CYPSE (Flatsedge); [15]): 0.0
